Starred links: 1 amine or outer side, 2 acyl side, 3 side chain; linkers in the order of their positions; H or OH if unused. Positions of bridges follow the written chain, without caps; N, C: chain ends. Non-standard residues stand in square brackets, D forms with d. Residues, ends and D or L forms follow the SMILES beside them. *: point of attachment. hTyr(3S-OH,4S-OH,3'-OSO3H) = N[C@H](C(=O)O)[C@H](O)[C@@H](O)c1ccc(O)c(OS(=O)(=O)O)c1; Orn(4R-OH,5R-OH) = O=C([C@H](C[C@@H](O)[C@@H](O)N[*:3])N[*:1])[*:2]; Pro(3S-OH,4S-Me) = C[C@H]1CN[C@H](C(=O)O)[C@H]1O; X1 = CCCCCOc1ccc(-c2cc(-c3ccc(C(=O)*)cc3)no2)cc1; Gln(3R-OH) = NC(=O)C[C@@H](O)[C@H](N)C(=O)O; Hyp = O=C(O)[C@@H]1C[C@@H](O)CN1
Test system: Rat Primary Kidney Glomerular Endothelial cells
Assay: Oxygen and glucose deprivation followed by replenishment, cell survival (calcein AM), rat glomerular endothelial cells;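 for Survival rate (%): 100% is hypoxia control with glucose and 0% is untreated OGD control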
Assay type: cell-based
Description: Anidulafungin and micafungin were tested on Human Renal Glomerular Endothelial Cells (HRGEC, Innoprot P10665), on Human Renal Proximal Tubular Epithelial Cells (HRPTEpiC, Innoprot P10662), on Human Astrocytes (HA, caltag SC-1800), on Human Cardiac Microvascular Endothelial Cells (HCMEC, Caltag SC-6000), on Human Hepatic Sinusoidal Endothelial Cells (HHSEC, Caltag SC-5000), on Rat Primary Kidney Glomerular Endothelial cells (Cellbiologics, RN-6014G) and on Bovine Brain Microvascular Endothelial Cells (BBMEC, Caltag SC-B100).
In a first phase, these isolated, purified and cryopreserved cells are thawed and multiplied according to the supplier's recommendations in T75 or T175 flasks pre-coated with 2 μg of fibronectin/[…] (CORNING) for HRGEC, HCMEC, HHSEC and BBMEC, or 2 μg poly-L-lysin/cm^2 (Caltag SC-0403) for HRPTEpiC and HA, or 15 mL/flask 175 cm^2 gelatin-based solution (Cellbiologics) in the presence of endothelial cell supplemented growth medium ECM (P60104, INNOPROT, Caltag, SC-1001) for HRGEC, HCMEC, HHSEC, RPKGEC or BBMEC, or astrocyte cell supplemented growth medium AM (Caltag SC-1801) for HA or epithelial cell supplemented growth medium EpiCM (P60106, INNOPROT) for HRPTEpiC, at 37° C. under 5% CO2 and saturated humidity until their confluency. They are then harvested by trypsinization according to the method described by the supplier for exactly 5 minutes and then reseeded in new flasks a maximum of three times.
To carry out the oxygen and glucose deprivation test followed by their replenishment, the cells will be seeded in 96-well black plates with transparent flat bottom (GREINER). Once a sufficient number of cells has been obtained to allow seeding of 2000 to 15000 cells per well of 96-well plates depending on the cell type, the cells are seeded in these 96-well plates previously coated with an extracellular matrix as listed above for the flasks. The cells are cultured for 5 to 8 days according to the cell type, in the presence of the same growth medium as in the flask as described above except for HRGEC and HRPTEpiC for which DMEM (DUTSCHER) with 1 g/L of supplemented glucose is used, at 37° C. under 5% CO2 and saturated humidity to obtain confluency.
On the first day of oxygen and glucose deprivation, (5th, 6th, 7th or 8th day of culture), the culture conditions are drastically changed. The medium of all plates is removed and replaced by DMEM (DUTSCHER) medium without glucose and supplemented only with 1% penicillin-streptomycin (DUTSCHER). Anidulafungin or micafungin dissolved in dimethyl sulfoxide (DMSO) is then added to each well at the desired concentration, resulting in a maximum of 1% DMSO, and the plates are placed under hypoxia at <1% 02 and 5% CO2 at 37° C. for 24 hours of culture. Each compound was tested in a concentration range.
After 24 hours, the growth medium is changed and replaced by a richer medium, DMEM (DUTSCHER) at 1 g/L glucose and 2% FBS (INNOPROT) and 1% penicillin-streptomycin (DUTSCHER). These media will have been pre-equilibrated at 37° C. in advance. The cells are then returned to culture at 37° C. under 20% 02 and 5% CO2 for 22h.
After 22 hours of reoxygenation, the potential protective effect of anidulafungin or micafungin is measured by a cell viability test using calcein AM (CORNING), which is a dye substrate. The calcein AM can easily cross the cell membrane of the viable cells. The AM ester groups mask the part of the molecule that chelates calcium. Once inside the cells, the (non-fluorescent) calcein AM is hydrolyzed to (fluorescent) calcein by endogenous esterases. The resulting calcein molecule binds to calcium inside the cell and remains trapped inside the cell. These molecules emit strong green fluorescence when subjected to […] of a particular wavelength (495 nm). Since dead cells lack esterase activity, only living cells are labelled.
This cell viability test is performed in two steps. […]

## CCCCCOc1ccc(-c2cc(-c3ccc(C(=O)N[C@H]4C[C@@H](O)[C@@H](O)NC(=O)[C@@H]5[C@@H](O)[C@@H](C)CN5C(=O)[C@H]([C@H](O)CC(N)=O)NC(=O)[C@H]([C@H](O)[C@@H](O)c5ccc(O)c(OS(=O)(=O)O)c5)NC(=O)[C@@H]5C[C@@H](O)CN5C(=O)[C@H]([C@@H](C)O)NC4=O)cc3)no2)cc1 [Micafungin, {5-[(1S,2S)-2-[(3S,6S,9S,11R,15S,18S,20R,21R,24S,25S,26S)-3-[(1R)-2-carbamoyl-1-hydroxyethyl]-11,20,21,25-tetrahydroxy-15-[(1R)-1-hydroxyethyl]-26-methyl-2,5,8,14,17,23-hexaoxo-18-[(4-{5-[4-(pentyloxy)phenyl]-1,2-oxazol-3-yl}benzene)amido]-1,4,7,13,16,22-hexaazatricyclo[22.3.0.0]heptacosan-6-yl]-1,2-dihydroxyethyl]-2-hydroxyphenyl}oxidanesulfonic acid] (X1-[Orn(4R-OH,5R-OH)]T[Hyp][hTyr(3S-OH,4S-OH,3'-OSO3H)][Gln(3R-OH)][Pro(3S-OH,4S-Me)]; lactam 1-C)
[Micafungin] log μM 0
  Globalfluo assay 1: 5417339 arbitrary units
  Globalfluo assay 2: 3464807 arbitrary units
  Globalfluo assay 3: 4867657 arbitrary units
  Mean globalfluo: 4583268 arbitrary units
  Survival rate (%): 3%
[Micafungin] log μM 0.1760913
  Globalfluo assay 1: 8740776 arbitrary units
  Globalfluo assay 2: 7981119 arbitrary units
  Globalfluo assay 3: 5239211 arbitrary units
  Mean globalfluo: 7320369 arbitrary units
  Survival rate (%): 14%
[Micafungin] log μM 0.30103
  Globalfluo assay 1: 3351615 arbitrary units
  Globalfluo assay 2: 4221516 arbitrary units
  Globalfluo assay 3: 4567106 arbitrary units
  Mean globalfluo: 4046746 arbitrary units
  Survival rate (%): 0%
[Micafungin] log μM 0.39794
  Globalfluo assay 1: 5495171 arbitrary units
  Globalfluo assay 2: 5446233 arbitrary units
  Globalfluo assay 3: 3835973 arbitrary units
  Mean globalfluo: 4925792 arbitrary units
  Survival rate (%): 4%
[Micafungin] log μM 0.4771213
  Globalfluo assay 1: 4782175 arbitrary units
  Globalfluo assay 2: 7854686 arbitrary units
  Globalfluo assay 3: 4782283 arbitrary units
  Mean globalfluo: 5806381 arbitrary units
  Survival rate (%): 8%
[Micafungin] log μM 0.60206
  Globalfluo assay 1: 12878800 arbitrary units
  Globalfluo assay 2: 13369330 arbitrary units
  Globalfluo assay 3: 12813230 arbitrary units
  Mean globalfluo: 13020453 arbitrary units
  Survival rate (%): 37%
[Micafungin] log μM 0.69897
  Globalfluo assay 1: 14177330 arbitrary units
  Globalfluo assay 2: 11602990 arbitrary units
  Globalfluo assay 3: 9423392 arbitrary units
  Mean globalfluo: 11734571 arbitrary units
  Survival rate (%): 31%
[Micafungin] log μM 0.7781513
  Globalfluo assay 1: 5553126 arbitrary units
  Globalfluo assay 2: 6638483 arbitrary units
  Globalfluo assay 3: 7505823 arbitrary units
  Mean globalfluo: 6565811 arbitrary units
  Survival rate (%): 11%
[Micafungin] log μM 0.845098
  Globalfluo assay 1: 7968558 arbitrary units
  Globalfluo assay 2: 13328410 arbitrary units
  Globalfluo assay 3: 4864200 arbitrary units
  Mean globalfluo: 8720389 arbitrary units
  Survival rate (%): 19%
[Micafungin] log μM 0.90309
  Globalfluo assay 1: 16467230 arbitrary units
  Globalfluo assay 2: 5461253 arbitrary units
  Globalfluo assay 3: 9297072 arbitrary units
  Mean globalfluo: 10408518 arbitrary units
  Survival rate (%): 26%
[Micafungin] log μM 0.9542425
  Globalfluo assay 1: 17001920 arbitrary units
  Globalfluo assay 2: 15398170 arbitrary units
  Globalfluo assay 3: 11994410 arbitrary units
  Mean globalfluo: 14798167 arbitrary units
  Survival rate (%): 44%
[Micafungin] log μM 1
  Globalfluo assay 1: 24112850 arbitrary units
  Globalfluo assay 2: 13345620 arbitrary units
  Globalfluo assay 3: 20572260 arbitrary units
  Mean globalfluo: 19343577 arbitrary units
  Survival rate (%): 62%
[Micafungin] log μM 1.041393
  Globalfluo assay 1: 8422700 arbitrary units
  Globalfluo assay 2: 12678250 arbitrary units
  Globalfluo assay 3: 11578770 arbitrary units
  Mean globalfluo: 10893240 arbitrary units
  Survival rate (%): 28%
[Micafungin] log μM 1.079181
  Globalfluo assay 1: 11147190 arbitrary units
  Globalfluo assay 2: 19591720 arbitrary units
  Globalfluo assay 3: 15002320 arbitrary units
  Mean globalfluo: 15247077 arbitrary units
  Survival rate (%): 46%
